Reference: a compilation of properties of binary mixtures (doi:10.1021/acs.jced.2c00033)

Experiment: xn = mol fraction of the nth substance listed
Settings: 100 kPa

Q: Which results are given for `O` + CC[n+]1ccn(C)c1.[Br-]?
A: viscosity (313.15 K, x2 = 0): 0.684 mPa·s; viscosity (333.15 K, x2 = 0): 0.492 mPa·s

Q: Which viscosity (313.15 K, x2 = 0) does the source give for `O` + CCCC[n+]1ccn(C)c1.[Br-] here?
A: 0.684 mPa·s

Q: And the viscosity (323.15 K, x2 = 0)?
A: 0.58 mPa·s

Q: What about the viscosity (333.15 K, x2 = 0) of the same compound?
A: 0.492 mPa·s

Q: What about the viscosity (343.15 K, x2 = 0) of the same compound?
A: 0.429 mPa·s

Q: With `CC[n+]1ccn(C)c1.[Br-]` + O as the compound, how does the viscosity (303.15 K, x1 = 0.0997) read?
A: 2.42 mPa·s

Q: And the viscosity (303.15 K, x1 = 0.1466)?
A: 3.55 mPa·s

Q: And the viscosity (303.15 K, x1 = 0.2501)?
A: 6.71 mPa·s

Q: And the viscosity (303.15 K, x1 = 0.3881)?
A: 13 mPa·s

Q: What about the viscosity (303.15 K, x1 = 0.543) of the same compound?
A: 28.2 mPa·s

Q: What about the viscosity (313.15 K, x1 = 0.049) of the same compound?
A: 1.14 mPa·s

Q: What about the viscosity (313.15 K, x1 = 0.0997) of the same compound?
A: 1.9 mPa·s

Q: What about the viscosity (313.15 K, x1 = 0.1466) of the same compound?
A: 2.72 mPa·s

Q: And the viscosity (313.15 K, x1 = 0.1978)?
A: 4.1 mPa·s

Q: And the viscosity (313.15 K, x1 = 0.2501)?
A: 5.07 mPa·s

Q: And the viscosity (313.15 K, x1 = 0.3881)?
A: 9.59 mPa·s

Q: And the viscosity (313.15 K, x1 = 0.543)?
A: 19.4 mPa·s

Q: What about the viscosity (323.15 K, x1 = 0.049) of the same compound?
A: 0.944 mPa·s

Q: What about the viscosity (323.15 K, x1 = 0.0997) of the same compound?
A: 1.57 mPa·s

Q: And the viscosity (323.15 K, x1 = 0.1466)?
A: 2.21 mPa·s

Q: What about the viscosity (323.15 K, x1 = 0.1978) of the same compound?
A: 3.27 mPa·s

Q: And the viscosity (323.15 K, x1 = 0.2501)?
A: 3.99 mPa·s

Q: What about the viscosity (323.15 K, x1 = 0.3881) of the same compound?
A: 7.31 mPa·s

Q: And the viscosity (323.15 K, x1 = 0.543)?
A: 14.3 mPa·s

Q: And the viscosity (333.15 K, x1 = 0.0997)?
A: 1.3 mPa·s

Q: And the viscosity (333.15 K, x1 = 0.1466)?
A: 1.85 mPa·s

Q: What about the viscosity (333.15 K, x1 = 0.1978) of the same compound?
A: 2.66 mPa·s

Q: And the viscosity (333.15 K, x1 = 0.2501)?
A: 3.21 mPa·s

Q: What about the viscosity (333.15 K, x1 = 0.3881) of the same compound?
A: 5.76 mPa·s

Q: And the viscosity (333.15 K, x1 = 0.543)?
A: 11.1 mPa·s

Q: And the viscosity (343.15 K, x1 = 0.049)?
A: 0.688 mPa·s

Q: What about the viscosity (343.15 K, x1 = 0.0997) of the same compound?
A: 1.12 mPa·s

Q: What about the viscosity (343.15 K, x1 = 0.1466) of the same compound?
A: 1.53 mPa·s

Q: And the viscosity (343.15 K, x1 = 0.1978)?
A: 2.2 mPa·s

Q: What about the viscosity (343.15 K, x1 = 0.2501) of the same compound?
A: 2.65 mPa·s

Q: And the viscosity (343.15 K, x1 = 0.3881)?
A: 4.59 mPa·s

Q: What about the viscosity (343.15 K, x1 = 0.543) of the same compound?
A: 8.6 mPa·s

Q: Which viscosity (303.15 K, x1 = 0.1481) does the source give for `CCCC[n+]1ccn(C)c1.[Br-]` + O here?
A: 5.93 mPa·s

Q: What about the viscosity (303.15 K, x1 = 0.1979) of the same compound?
A: 8.78 mPa·s

Q: And the viscosity (303.15 K, x1 = 0.2517)?
A: 12 mPa·s

Q: And the viscosity (313.15 K, x1 = 0.05)?
A: 1.56 mPa·s

Q: And the viscosity (313.15 K, x1 = 0.0992)?
A: 2.58 mPa·s

Q: And the viscosity (313.15 K, x1 = 0.1481)?
A: 4.3 mPa·s

Q: And the viscosity (313.15 K, x1 = 0.1979)?
A: 6.08 mPa·s

Q: What about the viscosity (313.15 K, x1 = 0.2517) of the same compound?
A: 8.65 mPa·s

Q: And the viscosity (323.15 K, x1 = 0.05)?
A: 1.27 mPa·s

Q: And the viscosity (323.15 K, x1 = 0.0992)?
A: 2.06 mPa·s

Q: What about the viscosity (323.15 K, x1 = 0.1481) of the same compound?
A: 3.43 mPa·s

Q: What about the viscosity (323.15 K, x1 = 0.1979) of the same compound?
A: 4.79 mPa·s

Q: What about the viscosity (323.15 K, x1 = 0.2517) of the same compound?
A: 6.49 mPa·s

Q: What about the viscosity (333.15 K, x1 = 0.1481) of the same compound?
A: 2.71 mPa·s

Q: And the viscosity (343.15 K, x1 = 0.05)?
A: 0.888 mPa·s

Q: And the viscosity (343.15 K, x1 = 0.0992)?
A: 1.37 mPa·s

Q: And the viscosity (343.15 K, x1 = 0.1481)?
A: 2.2 mPa·s

Q: And the viscosity (343.15 K, x1 = 0.1979)?
A: 2.91 mPa·s

Q: And the viscosity (343.15 K, x1 = 0.2517)?
A: 3.89 mPa·s

Q: What about the viscosity (343.15 K, x1 = 0.3882) of the same compound?
A: 7.98 mPa·s

Q: Which viscosity (303.15 K, x2 = 0) does the source give for `O` + CCCn1cc[n+](C)c1.[Br-] here?
A: 0.834 mPa·s

Q: And the viscosity (313.15 K, x2 = 0)?
A: 0.684 mPa·s

Q: What about the viscosity (323.15 K, x2 = 0) of the same compound?
A: 0.58 mPa·s

Q: What does the source list for `CCCn1cc[n+](C)c1.[Br-]` + O?
A: viscosity (303.15 K, x1 = 0.0497): 1.67 mPa·s; viscosity (303.15 K, x1 = 0.0992): 3.1 mPa·s; viscosity (303.15 K, x1 = 0.1984): 7.88 mPa·s; viscosity (303.15 K, x1 = 0.5756): 87.4 mPa·s; viscosity (313.15 K, x1 = 0.0497): 1.31 mPa·s; viscosity (313.15 K, x1 = 0.0992): 2.39 mPa·s; viscosity (313.15 K, x1 = 0.1984): 5.81 mPa·s; viscosity (313.15 K, x1 = 0.4005): 19.6 mPa·s; viscosity (313.15 K, x1 = 0.5756): 52.6 mPa·s; viscosity (323.15 K, x1 = 0.0992): 1.9 mPa·s; viscosity (323.15 K, x1 = 0.1984): 4.46 mPa·s; viscosity (323.15 K, x1 = 0.4005): 13.9 mPa·s; viscosity (323.15 K, x1 = 0.5756): 34 mPa·s; viscosity (333.15 K, x1 = 0.0497): 0.899 mPa·s; viscosity (333.15 K, x1 = 0.0992): 1.55 mPa·s; viscosity (333.15 K, x1 = 0.1984): 3.53 mPa·s; viscosity (333.15 K, x1 = 0.4005): 10.2 mPa·s; viscosity (333.15 K, x1 = 0.5756): 23.2 mPa·s; viscosity (343.15 K, x1 = 0.0497): 0.767 mPa·s; viscosity (343.15 K, x1 = 0.0992): 1.29 mPa·s; viscosity (343.15 K, x1 = 0.1984): 2.81 mPa·s; viscosity (343.15 K, x1 = 0.4005): 7.82 mPa·s; viscosity (343.15 K, x1 = 0.5756): 16.7 mPa·s
